Test results taken from US20190298743A1, “TREATMENT OF PAIN” (Takeda Pharmaceutical Company Limited, priority 2016, published 2019).

Legend:
PAR2 [1] = assay: BRET resensitisation assay, PAR2-RLuc8 with TGN38-venus in HEK293 cells; format: cell-based; conditions: 30 minute pre-treatment, all three proteases
Experimental: BRET resensitisation assays were used to quantify export of PAR2 from the trans-golgi network (TGN38-venus) upon stimulation of receptor expressed at the cell surface with a variety of proteases. The assays were repeated with various inhibitors of signaling nodes to verify signaling mechanisms behind receptor resensitisation.
After achieving ˜50% confluency within 10 cm dishes HEK293 cells were transiently transfected with PAR2-RLuc8 (1 μg) and TGN38-Venus (4 μg) using PEI as a transfection agent. 24 hours post transfection, cells were seeded into poly-D-lysine coated 96-well isoplates. BRET experiments were conducted the following day. Cells were allowed to equilibrate in either 1×HBSS (+0-28 g HEPES/100 ml, pH 7-40), […] Gallein (Gβγ inhibitor), 100 nM CRT0066101 (PKD inhibitor) or G06983 (PKC inhibitor) at 37° C. for 30 minutes before the addition of colenterazine H [5 μM]. Following a 5 minute incubation BRET was assessed using a LUMIstar Omega microplate reader (BMG LabTech, Offenburg, Germany), with luminescence being read at 535 nm and 475 nm. A 4 minute baseline was obtained before the addition of vehicle (1×HBSS) or protease, measurements were then continued for a further 30 minutes. BRET ratios were calculated using LUMIstar MARS analysis software and then corrected to baseline and vehicle treatments in Microsoft Excel 2013.

PAR2 [2] = assay: BRET proximity of PAR2 to KRas (plasma membrane) and Rab5a (endosomes) in HEK cells; format: cell-based
Experimental: (§1) The contribution of endocytosis of protease-activated receptor-2 (PAR2) was evaluated for generation of signals in subcellular compartments that mediate protease-evoked sensitization of nociceptors. Bioluminescence resonance energy transfer (BRET) was used to assess the proximity of PAR2 to resident proteins of the plasma membrane (KRas) and endosomes (Rab5a) in HEK cells. […] Förster resonance energy transfer (FRET) biosensors targeted to the plasma membrane, cytosol or nucleus were used to examine the capacity of proteases to generate signals in subcellular compartments of HEK cells and rat dorsal root ganglia neurons. […] Dynamin inhibitor Dyngo4a, Clathrin inhibitor Pitstop2 and dominant negative β-arrestin inhibited trypsin-evoked endocytosis of PAR2, and prevented trypsin-evoked activation of cytosolic cAMP and PKC and nuclear ERK. […] To examine the link between PAR2 endocytosis, compartmentalized signaling and nociceptor sensitization, perforated patch clamp recordings were made from mouse dorsal root ganglia neurons. […] The effects of proteases on excitability were blocked by the PAR2 antagonist GB88. Thus, canonical and biased proteases sensitize nociceptors by distinct mechanisms. For canonical agonists, PAR2 endocytosis generates compartmentalized signals subcellular compartments that underlie sustained excitability of nociceptive neurons. Inhibiting endosomal signaling of PAR2 may provide a novel method of treating protease-evoked pain.

PAR2 [3] = assay: FRET biosensors for compartmentalised cAMP, PKC and ERK signals in HEK cells and rat dorsal root ganglia neurons; format: cell-based
Experimental: as §1

[4] = Protease-evoked paw edema, hindpaw thickness; format: in vivo, mice
Experimental: (§2) Immediately before experiments the mice were acclimatized to the experimental apparatus, room and investigator for 1-2 h on 2 successive days. Mechanical nociceptive responses were evaluated by paw withdrawal to stimulation of the plantar surface of the hind-paw with calibrated von Frey filaments. von Frey scores were measured in triplicate to establish a baseline for each animal on the day before experiments. Paw edema was estimated by measuring the thickness of the hindpaw using digital calipers before and after treatments. Mice were […] with 5% isoflurane for intraplantar injections. Dyngo4a (50 μM), PitStop2 (50 μM) or vehicle (0.2% DMSO in 0.9% NaCl) (all 10 μl) were injected into the left hindpaw. After 30 min, trypsin (10 nM), Cat-S (2.5 μM) or elastase (30 U) (all 10 μl) were injected into the same left hindpaw. von Frey scores (left and right paws) and paw thickness (left paw) were measured hourly for up to 4 h after protease injection. Investigators were blinded to the test agents.

PAR2 [5] = assay: BRET receptor trafficking, PAR2-RLuc8 with early endosomal marker Rab5a-venus in HEK293 cells; format: cell-based; conditions: for Effect on trypsin evoked internalisation, early endosomal marker: 30 μM inhibitor, 30 minute pre-treatment
Experimental: (§3) Bret studies of receptor trafficking were conducted to quantify PAR2 internalisation (RIT-venus) and trafficking to early endosomes (Rab5a-venus) upon stimulation with different agonists.
(§4) After achieving ˜50% confluency within 10 cm dishes HEK293 cells were transiently transfected with 1 μg PAR2-RLuc8 and 4 μg of either RIT-venus or Rab5a-venus using PEI as a transfection agent. 24 hours post transfection, cells were seeded into poly-D-lysine coated 96-well isoplates. […] When used endocytic inhibitors were diluted in 1×HBSS+1% dimethyl sulfoxide (DMSO). Following the replacement of culture media cells were allowed to equilibrate at 37° C. for 30 minutes before the addition of colenterazine H [5 μM]. After a further 5 minute incubation BRET was assessed using a LUMIstar Omega microplate reader (BMG LabTech, Offenburg, Germany), with luminescence being read at 535 nm and 475 nm. A 4 minute baseline was obtained before the addition of vehicle (1×HBSS+/−1% DMSO) or protease, measurements were then continued for a further 30 minutes. BRET ratios were calculated using LUMIstar MARS analysis software and then corrected to baseline and vehicle treatments in Microsoft Excel 2013.

PAR2 [6] = assay: BRET receptor trafficking, PAR2-RLuc8 with plasma membrane marker RIT-venus in HEK293 cells; format: cell-based; conditions: for Effect on trypsin evoked internalisation, plasma membrane marker: 30 μM inhibitor, 30 minute pre-treatment
Experimental: as §3, §4

[7] = Protease-evoked mechanical hyperalgesia, von Frey paw withdrawal; format: in vivo, mice; conditions: for Effect on trypsin-evoked mechanical hyperalgesia: 30 min before trypsin
Experimental: as §2

DRG neurons = assay: Perforated patch-clamp excitability (rheobase) of isolated DRG neurons; format: cell-based, mice; conditions: for Effect of inhibitor alone on rheobase: 0 or 30 min; for Effect on cathepsin S- or elastase-induced decrease in rheobase (sustained excitability) at 30 min / Effect on trypsin-induced decrease in rheobase (sustained excitability) at 30 min / Effect on protease induced decrease in rheobase (initial hyperexcitability) at 0 min: inhibitor 30 min before and during protease; for Effect on protease induced decrease in rheobase (initial hyperexcitability) at 0 min: trypsin, cathepsin S or elastase
Experimental: To assess the effects of proteases on excitability of nociceptors, DRG neurons were preincubated with trypsin, cathepsin S, elastase or vehicle (control), washed, and rheobase and action potential discharge at a current of twice rheobase were measured at 0 min or 30 min after washing.
DRG (T9-T13) from C57BL/6 mice were digested by incubation in collagenase (1 mg/ml, Worthington Biochemical, Lakewood, N.J.) and dispase (4 mg/ml, Roche Life Science, Indianapolis, Ind.) for 10 min at 37° C., and were dispersed by trituration with a fire-polished Pasteur pipette. Cells were plated onto coverslips coated with laminin (0.017 mg/ml) and poly-D-lysine (2 mg/ml) in 24-well plates. Neurons were cultured in F12 medium (Cat N668, Lot RNBD5333, Sigma-Aldrich, St Louis, Mo. USA) containing 10% fetal calf serum, with penicillin and streptomycin and maintained at 37° C. in a humidified atmosphere of 95% air and 5% CO2 until retrieval (16 h) for electrophysiological studies.
Neuronal excitability was assessed by perforated patch-clamp recordings with amphotericin B (240 μg/ml) from small diameter neurons (<30 pF capacitance) in current clamp mode at room temperature. Only neurons with resting membrane potentials more negative than −40 mV were analyzed. Changes in excitability were quantified by measuring rheobase (minimum current to fire action potential) and numbers of action potentials discharged at twice rheobase. Recordings were made using Axopatch 200B amplifiers, digitized by Digidata 1322A and stored and processed using pClamp 10.1 software (Molecular Devices, Sunnyvale, Calif.). The recording chamber was continuously perfused with external solution at 2 ml/min. External solution was (mM): 140 NaCl, 5 KCl, 10 HEPES, 10 D-glucose, 1 MgCl2, 2 CaCl2; pH to 7.4 with 3 M NaOH. Pipette solution was (mM): 110 K-gluconate, 30 KCl, 10 HEPES, 1 MgCl2, 2 CaCl2; pH 7.25 with 1 M KOH.
DRG neurons were pre-incubated with vehicle (control) or proteases using conditions that we have reported to cause robust hyperexcitability: trypsin (50 nM, 10 min), elastase (10 U/ml, 390 nM, 30 min), Cat-S (500 nM, 60 min). Neurons were then washed and maintained in protease-free F12 medium. Neuronal excitability was assessed 0 or 30 min after washing. In some experiments, neurons were incubated with vehicle (0.3% DMSO), Dyngo4a (30 μM) or PitStop2 (15 μM) for 30 min before and during incubation with proteases.
Results are expressed as mean±SE. Two way ANOVA and post hoc Tukey's tests were used to analyze the data.

PAR2 [8] = assay: Whole population FRET with cytosolic ERK sensor CytoEKAR in HEK293 cells; format: cell-based
Experimental: (§5) Förster Resonance Energy Transfer (FRET) was used to characterise PAR2 mediated ERK within different subcellular compartments upon stimulation with different agonists. The assays were repeated after employing pharmacological and genetic approaches shown to abolish receptor internalisation to assess the role of internalisation in generating compartmentalised signals.
(§6) After achieving ˜50% confluency within 10 cm dishes HEK293 cells were transfected with 2-5 μg of PAR2 with N-terminal HA epitope tag (PAR2-HA) and 2-5 μg of desired FRET biosensor, using PEI as a transfection agent. 24 hours after transfection, cells were seeded into poly-D-lysine coated black 96 well isoplates. FRET was assessed 48 hours after cell plating, following overnight serum restriction. […] When used endocytic inhibitors were diluted in 1×HBSS+1% dimethyl sulfoxide (DMSO). Following the replacement of culture media cells were allowed to equilibrate at 37° C. for 30 minutes. FRET was then determined using a PHERAstar FS microplate reader (BMG LabTech, Offenburg, Germany), cells were sequentially excited at 430 nm with emissions being read at 550 nm and 490 nm. A 4 minute baseline was obtained before the addition of vehicle (1×HBSS+/−1% DMSO), protease or 1 μM PDBu (serving as a positive control). Measurements were then continued every minute for a further 30 minutes. FRET ratios were then calculated and corrected to baseline and vehicle treatments in Microsoft Excel 2013.

PAR2 [9] = assay: Whole population FRET with nuclear ERK sensor NucEKAR in HEK293 cells; format: cell-based
Experimental: as §5
as §6, with “Measurements were then continued every minute for a further 30 minutes.” left out

[10] = intraplantar 50 μM, 30 min before protease

Row | Effect on cathepsin S- or elastase-induced decrease in rheobase (sustained excitability) at 30 min (DRG neurons) | Compound | Effect on protease induced PAR2 trafficking away from the trans-golgi network (PAR2 [1]) | Effect on trypsin-evoked endocytosis of PAR2 (PAR2 [2]) | Effect on trypsin-evoked activation of cytosolic cAMP and PKC and nuclear ERK (PAR2 [3]) | Effect on trypsin evoked internalisation, early endosomal marker (PAR2 [5]) | Effect on trypsin evoked internalisation, plasma membrane marker (PAR2 [6]) | Effect on trypsin-evoked mechanical hyperalgesia ([7]; intraplantar 50 μM) | Effect of inhibitor alone on rheobase (DRG neurons) | Effect on trypsin-induced decrease in rheobase (sustained excitability) at 30 min (DRG neurons) | Effect on protease induced decrease in rheobase (initial hyperexcitability) at 0 min (DRG neurons) | other results
1 |  | CC[C@@H](N)CNc1ccnc(-c2cc(-c3cnn(C)c3)ccc2O)n1.Cl.Cl [CRT0066101] | Less prominent effects |  |  |  |  |  |  |  |  | 
2 | no effect and not | O=C(N/N=C/c1cc(O)c(O)cc1O)c1cc2ccccc2cc1O [Dyngo4a, reference compound] |  | inhibited | prevented | less pronounced inhibition | less pronounced inhibition | inhibited | Neither vehicle, PitStop2 nor Dyngo4a alone affected rheobase | prevented | did not affect | Effect on trypsin-, Cat-S- or elastase-evoked edema [4, 10]: did not affect; Effect on Cat-S- or elastase-evoked mechanical hyperalgesia [7, 10]: did not affect
3 |  | COc1ccc2c(c1)c(C1=C(c3c[nH]c4ccccc34)C(=O)NC1=O)cn2CCCN(C)C [G06983] | Less prominent effects |  |  |  |  |  |  |  |  | 
4 |  | O=C1OC2(c3ccccc31)c1ccc(O)c(O)c1Oc1c2ccc(O)c1O [Gallein] | reduced PAR2 trafficking away from the trans-golgi network |  |  |  |  |  |  |  |  | 
5 | no effect | O=C1NC(=NS(=O)(=O)c2cccc3ccccc23)S/C1=C\c1ccc(Br)cc1 [PitStop2, reference compound] |  | inhibited | prevented | reduced the magnitude of BRET | reduced the magnitude of BRET | inhibited | Neither vehicle, PitStop2 nor Dyngo4a alone affected rheobase | prevented | did not affect | Effect on trypsin evoked cytosolic ERK phosphorylation (PAR2 [8]; 30 μM inhibitor, 30 minute pre-treatment): diminished; Effect on cathepsin S- or elastase-induced decrease in rheobase (sustained excitability) at 30 min (DRG neurons; listed as Pitstop2): not
6 |  | elastase |  |  |  |  |  |  |  |  |  | PAR2 endocytosis induced by agonist (PAR2 [2]; HEK cells): did not induce PAR2 endocytosis; Signals generated by protease in subcellular compartments (PAR2 [3]): only activated cAMP and PKC at the plasma membrane and ERK in the cytosol; Ability of agonist to produce ERK signals within the nucleus (PAR2 [9]): not; Edema after intraplantar injection of protease ([4]; ipsilateral paw): edema of the ipsilateral paw that was maximal after 4 h; Change in BRET between PAR2 and early endosomal marker upon agonist stimulation (PAR2 [5]; trypsin 10 nM): not observed; Ability of agonist to produce ERK signals within the cytoplasm (PAR2 [8]): not; Change in BRET between PAR2 and plasma membrane marker upon agonist stimulation (PAR2 [6]; trypsin 10 nM): not observed; Mechanical hyperalgesia after intraplantar injection of protease ([7]; ipsilateral paw): caused mechanical hyperalgesia of the ipsilateral paw that was sustained for at least 4 h; Effect of protease on excitability (rheobase) of DRG neurons (DRG neurons; 0 min and 30 min after washing): immediate increase in excitability
